Values of other authors in patent US20070224228A1, “Soap Bars Having Ultraviolet Radiation Protection” (priority 2004, published 2007).

Conditions: partition coefficient; solvents octanol and water; values printed as approximate (˜)

Compound | Log P
CCCCC(CC)COC(=O)C(C#N)=C(c1ccccc1)c1ccccc1 (centres unmarked) [Octocrylene] | ~6.9
Cyclomethicone | ~5.7
